Values joined by “and” are separate entries in the source; they are usually repeats but may differ in a detail not shown here. Equal values may be shown once. Read-outs that look alike come from different tables or passages of the source.
How the values were obtained:
SM38 = test: Enzyme assays and kinetics with purified recombinant soluble SM38; type: biochemical, Schistosoma mansoni; settings: for Km / Vmax (specific activity) / kcat: 37° C., 10 mM potassium phosphate buffer pH 7.4, SM38 from Pichia pastoris
Procedure: The enzyme was incubated with NAD^+ (200 μM) in buffer A (1 ml final volume) until the reaction reached 50% completion. The enzyme was eliminated by centrifugation for 10 min at 5000×g on ultrafiltration units (Vivaspin 2, Vivascience). […] The cycling reaction was then allowed to proceed in the same buffer in the presence of 0.8% ethanol, 10 mM nicotinamide, 40 μg/ml BSA, 20 μg/ml diaphorase (treated with charcoal), 20 μg/ml alcohol dehydrogenase, 10 μM FMN and 20 μM resazurin. The increase in resorufin fluorescence (excitation at 544 nm and emission at 590 nm) was measured every minute for 2 h using a fluorescence plate reader (FluoStar from BMG Labtechnologies Inc).
Aliquots were removed at different time points, treated as described above and analyzed by HPLC on a C18 column.
(§1) The transglycosidation of NADP^+ was measured by incubating recombinant soluble SM38 with 1 mM NADP^+ and 20 to 40 mM nicotinic acid at 37° C. for 20 min in a 10 mM potassium phosphate buffer, pH 6.0 or 7.4 (final volume 500 μl). The reaction mixture was analyzed by HPLC on an ion-exchange column (see below). HPLC analysis of the reaction products were performed on aliquots on a C18 column (see below).
The assays were conducted at 37° C. in buffer A in the presence of soluble recombinant enzyme using eight different substrate concentrations. […] Kinetic parameters were determined from the plots of the initial rates as a function of substrate concentration, according to Michaelis-Menten kinetics, using a non-linear regression program (GraphPad, Prism).

bone marrow neutrophils [1] = test: Intracellular calcium measurements by flow cytometry (Fluo-3/Fura Red); type: cell-based, mouse
Procedure: Purified bone marrow neutrophils were resuspended in cell loading media (HBSS with Ca2^+ and Mg2^++1% FBS+4 mM probenecid) at 1×10^7 cells/ml. The cells were incubated at 37° C. for 30 min with the fluorescent dyes Fluo-3 AM (4 μg/ml) and Fura Red AM (10 μg/ml) (Molecular Probes, Eugene Oreg.) and then washed twice and resuspended in cell loading medium or calcium-free medium at 1×10^6 cells/ml. In some experiments, cells were permeabilized in 5 μM digitonin in calcium-free media. […] The accumulation of [Ca^2+]i in individual cells was assessed by flow cytometry measuring the fluorescence emission of Fluo-3 in the FL-1 channel and Fura-Red in the FL-3 channel. Data was analyzed using FlowJo 3.2 (Tree Star, Inc. San Carlos, Calif.). The relative [Ca2^+]i was expressed as the ratio between Fluo-3 and Fura Red mean fluorescence intensity over time.

bone marrow neutrophils [2] = test: In vitro transwell chemotaxis assay; type: cell-based, mouse; settings: for ability of neutrophils to chemotax to IL-8: WT neutrophils pre-treated with agent, IL-8 in bottom chamber
Procedure: Bone marrow neutrophils were purified (95% purity) by positive selection using biotinylated GR-1 (PharMingen) and MACS Streptavidin Microbeads (Miltenyi Biotec, Auburn Calif.). Chemotaxis assays (Falk et al., 1980 J. Immuno. Methods 33:239-247) were performed using 24-well transwell plates with a 3 μm pore size polycarbonate filter (Costar, Cambridge, Mass.). Medium (HBSS+Ca2^++Mg2^+), fMLP (1 μM, Sigma, St. Louis, Mo.), or IL-8 (100 nM, Sigma) was placed in the lower and/or upper chamber in a checkerboard format. 1×10^5 neutrophils were loaded in the upper chamber and the plates were incubated at 37° C. for 45 min. The transmigrated cells were collected from the lower chamber, fixed and counted on the flow cytometer (FACS Calibur, Becton Dickinson, San Jose Calif.). To determine the absolute number of cells in each sample, a standard number of […] size fluorescent microspheres (Polysciences, Inc. Warrington, Pa.) was added to each tube and counted along with the cells. The total number of transmigrated cells=the number of counted neutrophils×total number of beads/beads counted. […]

Mammalian cyclases = settings: cited from earlier work
Aplysia cyclase = Aplysia cyclase (Aplysia californica, UniProt P29241); settings: cited from earlier work
[3] = system: membrane-associated NAD^+ glycohydrolase/NGD^+ cyclase expressed by adult S. mansoni worms; test: NAD+ glycohydrolase / NGD+ cyclase activity of adult worm membrane microsomes
Procedure: The enzyme was suspended in 10 mM potassium phosphate buffer, pH 7.4 (buffer A) and incubated at 37° C. with substrate (200 μl final volume). At selected times, aliquots (50 μl) were removed and enzyme activity was stopped by adding ice-cold perchloric acid (2% final concentration). After neutralization with 3.5 M K2CO3, precipitated proteins were removed by centrifugation. Product formation was then monitored by HPLC as described below. […] Product formation was then monitored by HPLC on a C18 column as described below.
Product analysis was performed by HPLC on 300×3.9 mm μBondapack C18 column (Waters Assoc., Milford Mass.). […] The elution was performed at a flow rate of 1 ml/min with a non-linear gradient starting with 100% solvent A (water). […] Peaks were identified by comparison with authentic samples and areas obtained from UV recordings were normalized using the molar extinction coefficients of the reaction products.
To prepare membrane fractions from adult S. mansoni worms, 2 g of worms were disrupted at 4° C. with a potter in 10 mM potassium phosphate buffer (pH 7.4) containing 1 mM EDTA and 0.1 mM phenylmethylsulfonyl fluoride (PMSF) as protease inhibitors. The homogenate was centrifuged at 10,000×g for 15 min and the post-mitochondrial supernatant was centrifuged at 100,000×g for 60 min to obtain the membrane microsomal fraction. […]

[4] = other cyclase family members; cited from earlier work
[5] = Transglycosidation (pyridine base exchange) by cyclase family enzymes; type: biochemical; settings: SM38
Procedure: as §1

Chain of Aplysia cyclase (P29241 25-282): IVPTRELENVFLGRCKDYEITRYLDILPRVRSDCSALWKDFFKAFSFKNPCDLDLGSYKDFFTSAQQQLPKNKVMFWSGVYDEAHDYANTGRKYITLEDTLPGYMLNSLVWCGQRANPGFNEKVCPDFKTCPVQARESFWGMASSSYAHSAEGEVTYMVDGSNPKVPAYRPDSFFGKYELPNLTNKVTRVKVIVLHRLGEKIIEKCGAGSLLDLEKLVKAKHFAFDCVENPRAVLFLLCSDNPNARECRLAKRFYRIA

Molecule: Nc1ncnc2c1ncn2[C@@H]1O[C@H](COP(=O)(O)OP(=O)(O)OCC2OC([n+]3cccc(C(=O)[O-])c3)C(O)C2O)[C@@H](O)[C@H]1OP(=O)(O)O (stereo in doubt) [NAADP^+, nicotinic acid adenine dinucleotide phosphate]
- reduction in NAADP+ formation at pH 7.4 compared to pH 6.0 (SM38; transglycosidation of NADP+ with nicotinic acid): 3 fold

Molecule: N=c1c2nc(Br)n3c2ncn1C1OC(COP(=O)(O)OP(=O)(O)OCC2OC3C(O)C2O)C(O)C1O (stereo not drawn) [8-Br-cADPR]
- release of intracellular calcium and influx of extracellular calcium (bone marrow neutrophils [1]; WT cells preincubated with increasing concentrations, stimulated with fMLP): reduced in a dose-dependent fashion
- [Ca2+]i of IL-8 stimulated neutrophils (bone marrow neutrophils [1]; WT or CD38KO neutrophils, IL-8): absolutely no effect
- cADPR-induced intracellular calcium release after pre-treatment (bone marrow neutrophils [1]; permeabilized neutrophils, calcium-free buffer, stimulated with cADPR): No calcium release
- block of accumulation of intracellular free calcium mediated by thapsigargin (bone marrow neutrophils [1]; thapsigargin-stimulated neutrophils): unable to block
- ability of neutrophils to chemotax to IL-8 (bone marrow neutrophils [2]): absolutely no effect

Molecule: O=C(O)CN(CCOCCOCCN(CC(=O)O)CC(=O)O)CC(=O)O [EGTA]
- ability of neutrophils to chemotax to IL-8 (bone marrow neutrophils [2]): absolutely no effect

Molecule: NNC(=O)c1ccncc1 [INH, isoniazid]
- Sensivity to INH (Mammalian cyclases): yes/no
- Sensivity to INH (SM38; SM38): INH-insensitive and no

Molecule: NC(=O)c1ccc[n+]([C@@H]2O[C@H](COP(=O)([O-])OP(=O)(O)OC[C@H]3O[C@@H](n4c(Br)nc5c(N)ncnc54)[C@H](O)[C@@H]3O)[C@@H](O)[C@H]2O)c1 [N(8-Br-A)D^+, nicotinamide 8-bromoadenine dinucleotide]
- entry of extracellular calcium in fMLP-treated neutrophils (bone marrow neutrophils [1]; WT neutrophils pretreated): inhibited
- chemotaxis of CD38KO neutrophils to either fMLP or IL-8 (bone marrow neutrophils [2]; CD38KO neutrophils pre-treated): no effect
- ability of neutrophils to chemotax to IL-8 (bone marrow neutrophils [2]): no effect
- neutrophil chemotaxis to fMLP (bone marrow neutrophils [2]; WT neutrophils pre-treated, fMLP in bottom chamber): severely reduced

Molecule: NC(=O)c1ccc[n+]([C@@H]2O[C@H](COP(=O)([O-])OP(=O)(O)OC[C@H]3O[C@@H](n4cnc5c(N)ncnc54)[C@H](OP(=O)(O)O)[C@@H]3O)[C@@H](O)[C@H]2O)c1 [NADP^+]
- Km (SM38): 13.7 ± 2.9 µM
- Vmax (specific activity) (SM38): 39.2 ± 1.6 µmol/min/mg
- kcat (SM38): 19.34 ± 0.79 s⁻¹
- catalytic efficiency (kcat/Km) relative to NAD+ (SM38; NADP+ versus NAD+): 8 fold

Molecule: NC(=O)c1ccc[n+]([C@@H]2O[C@H](COP(=O)([O-])OP(=O)(O)OC[C@H]3O[C@@H](n4cnc5c(N)ncnc54)[C@H](O)[C@@H]3O)[C@@H](O)[C@H]2O)c1 [NAD^+]
- Hydrolysis of NAD^+ (Aplysia cyclase): very low
- Methanolysis of NAD^+ (Aplysia cyclase): very low
- Hydrolysis of NAD^+ (Mammalian cyclases): yes
- Methanolysis of NAD^+ (Mammalian cyclases): yes
- specific activity of non-treated membrane microsomes ([3]; 14C-labeled NAD+, ADPR production by HPLC): 36 nmol/min/mg protein
- Km (SM38): 38.5 ± 6.8 µM
- Vmax (specific activity) (SM38): 13.2 µmol/min/mg and 13.2 ± 2.6 µmol/min/mg
- kcat (SM38): 6.51 ± 1.28 s⁻¹
- Hydrolysis of NAD^+ (SM38; SM38): yes
- Methanolysis of NAD^+ (SM38; SM38): yes

Molecule: NC(=O)c1ccc[n+]([C@@H]2O[C@H](COP(=O)([O-])OP(=O)(O)OC[C@H]3O[C@@H](n4cnc5c(=O)[nH]c(N)nc54)[C@H](O)[C@@H]3O)[C@@H](O)[C@H]2O)c1 [NGD^+, nicotinamide guanine dinucleotide]
- cGDPR/GDPR ratio ([3]; membrane microsomes incubated with NGD+): 12
- Km (SM38): 23.4 µM
- Vmax (specific activity) (SM38): 4.8 µmol/min/mg and 4.8 ± 0.1 µmol/min/mg
- kcat (SM38): 2.37 ± 0.05 s⁻¹
- cyclization/hydrolysis ratio (SM38; NGD+ as substrate, cGDPR vs GDPR): approximately 6.0

Molecule: NC(=O)c1ccc[n+]([C@@H]2O[C@H](COP(=O)([O-])OP(=O)(O)OC[C@H]3O[C@@H](n4cnc5c(N)ncnc54)[C@H](O)[C@@H]3O)[C@@H](O)[C@H]2F)c1 [araF-NAD^+]
- IC50 (Aplysia cyclase; read-out: Inhibition by araF-NAD^+ (IC50)): > 10 µM
- Inhibition by araF-NAD^+ (Ki) (Mammalian cyclases): Ki nM range
- IC50 (SM38; SM38, read-out: Inhibition by araF-NAD^+ (IC50)): > 10 µM

Molecule: N.N.N.N.N.N.N.N.N.N.N.N.N.N.[Cl-].[Cl-].[Cl-].[Cl-].[Cl-].[Cl-].[O-2].[O-2].[Ru+3].[Ru+3].[Ru+4] [ruthenium red]
- block of ryanodine-induced increase in [Ca2+] (bone marrow neutrophils [1]; permeabilized neutrophils, calcium-free buffer): blocked

Molecule: cyclic GDP-ribose [cGDPR]
- Formation of cGDPR (Aplysia cyclase): yes
- Formation of cGDPR (Mammalian cyclases): yes
- Formation of cGDPR (SM38; SM38): yes

Molecule: ryanodine
- [Ca2+]i after stimulation (bone marrow neutrophils [1]; neutrophils permeabilized in calcium-free buffer): small, but reproducible, increase

B1: Aplysia cyclase: invertebrate Aplysia ADP-ribosyl cyclase enzyme (protein)
chain: MSPVAIVACVCLAVTLTRISPSEAIFPTPELQNVFLGRCKDYEITRYLTILPRVKSDCRALWTNFFKAFSFKAPCNLDLGSYKDFFQRAQQTLPKNKVMFWSGVYDEAHDFADDGRKYITLEDTLPGYMLNSLVWCGQRDKPGFNQKVCPDFKDCPVQARESFWGTASSSYAHSAEGDVTYMVDGSNPKVPAYRPDSFFGKYELPNLTNKVTKVKVIVLHQLGQKIIERCGAGSLLDLEMVVKAKKFGFDCVENPKSVLFLLCADNPNARECQLAKRYYRIA
modifications: A. californica
notes: invertebrate Aplysia ADP-ribosyl cyclase enzyme
- Transglycosidation [4]: yes

B2: SM38: CD38 homologue from the parasitic flatworm Schistosoma mansoni (protein)
chain: RHEVIFHNLLIQIMMNVILFLTLSNIFVFNSAQHQINLLSEIVQSRCTQWKVEHGATNISCSEIWNSFESILLSTHTKSACVMKSGLFDDFVYQLFELEQQQQQRHHTIQTEQYFHSQVMNIIRGMCKRLGVCRSLETTFPGYLFDELNWCNGSLTGNTKYGTVCGCDYKSNVVHAFWQSASAEYARRASGNIFVVLNGSVKAPFNENKTFGKIELPLLKHPRVQQLTVKLVHSLEDVNNRQTCESWSLQELANKLNSVHIPFRCIDDPLEFRHYQCIENPGKQLCQFSASTRSNVETLLILFPLVICLTFYTSMN
- Transglycosidation [5]: yes
